Measured values published in patent US20240400553A1, “AMINE BASED MATRIPTASE 2 INHIBITORS AND USES THEREOF” (Disc Medicine, Inc., priority 2023, published 2024).
Where two headings read alike, the source gives them in different places.

Target: T1, Human Recombinant Matriptase 2 (Homo sapiens, UniProt Q8IU80)
T1 construct: made in house
T1 sequence (Q8IU80 1-811): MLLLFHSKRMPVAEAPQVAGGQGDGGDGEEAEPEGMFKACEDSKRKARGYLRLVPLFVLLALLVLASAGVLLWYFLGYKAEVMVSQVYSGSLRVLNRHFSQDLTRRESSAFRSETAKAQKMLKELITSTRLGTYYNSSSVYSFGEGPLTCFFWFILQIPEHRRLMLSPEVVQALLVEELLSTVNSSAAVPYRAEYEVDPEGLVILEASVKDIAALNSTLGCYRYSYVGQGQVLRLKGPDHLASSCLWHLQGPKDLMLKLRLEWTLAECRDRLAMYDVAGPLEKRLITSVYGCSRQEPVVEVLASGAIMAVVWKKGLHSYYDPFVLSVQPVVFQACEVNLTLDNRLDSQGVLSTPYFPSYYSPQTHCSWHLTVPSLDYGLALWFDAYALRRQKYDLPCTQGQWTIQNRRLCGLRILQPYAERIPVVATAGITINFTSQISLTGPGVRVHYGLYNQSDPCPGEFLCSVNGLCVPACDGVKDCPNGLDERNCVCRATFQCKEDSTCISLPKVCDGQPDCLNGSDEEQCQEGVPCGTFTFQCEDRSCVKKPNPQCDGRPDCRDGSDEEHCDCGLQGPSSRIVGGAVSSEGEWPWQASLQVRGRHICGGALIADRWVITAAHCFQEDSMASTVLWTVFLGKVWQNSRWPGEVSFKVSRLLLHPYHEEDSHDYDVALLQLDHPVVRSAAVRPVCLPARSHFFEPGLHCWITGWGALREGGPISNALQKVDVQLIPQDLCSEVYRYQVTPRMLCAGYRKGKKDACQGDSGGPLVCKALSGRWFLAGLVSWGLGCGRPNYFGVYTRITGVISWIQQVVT
Assay: Matriptase 2 inhibition, fluorescence based assay (Method I)
Assay type: biochemical
How it was run: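 In-house recombinant enzyme (3.5 nM), preincubated 30 min with compound, then Boc-Gln-Ala-Arg-AMC substrate (62 μM) in 50 mM Tris pH 7.5, 150 mM NaCl, 0.01% gelatin, 1% DMSO, 25 °C. Fluorescence (Ex 360/Em 480 nm) read 60 min after substrate; IC50 from variable-slope sigmoidal fit of % inhibition.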

[1] = Table A, Ki of Matriptase-2, read-out: Mat-2 Ki
[2] = Table A, Ki of Matriptase-2 given as class symbols, read-out: Mat-2 Ki
[3] = Table B, Human Recombinant Matriptase 2, 3.5 nM enzyme, 62 μM substrate, 30 mins preincubation, read-out: Mean Ki

Compound | Ki [1] [nM] | Ki [2] [nM] | other results
Cc1nccn1CCOC(=O)c1cc2ccc(CN)nc2n1Cc1cc(NS(=O)(=O)Cc2ccccc2)cc2ccccc12 [Compound 140, 2-(2-methyl-1H-imid-azol-1-yl)ethyl 6-(amino-methyl)-1-{[3-(phenyl-methanesulfonamido)-naphthalen-1-yl]methyl}-1H-pyrrolo[2,3-b]pyr-idine-2-carboxylate] | 100 to 500 |  | 
COCCN1CC[C@H](COC(=O)c2cc3ccc(CN)nc3n2Cc2cc(NS(=O)(=O)Cc3ccccc3)cc3ccccc23)C1 (racemic) [Compound 138, rac-[(3R)-1-(2-methoxy-ethyl)pyrrolidin-3-yl]-methyl 6-(aminometh-yl)-1-{[3-(phenylmeth-anesulfonamido)naph-thalen-1-yl]methyl}-1H-pyrrolo[2,3-b]pyridine-2-carboxylate] | ≤ 100 |  | 
NCc1ccc2cc(C(=O)O)n(Cc3cc(NS(=O)(=O)Cc4ccno4)cc4ccccc34)c2n1 [Compound 233, 6-(aminomethyl)-1-({3-[(1,2-oxazol-5-yl)-methanesulfonamido]-naphthalen-1-yl}methyl)-1H-pyrrolo[2,3-b]pyr-idine-2-carboxylic acid] |  | 100 to 500 | 
CCOC(=O)c1cc2ccc(CN)nc2n1Cc1cc(NS(=O)(=O)CC[C@@H]2CCCN2)cc2ccccc12 [Compound 269, ethyl 6-(aminomethyl)-1-[(3-{2-[(2S)-pyrrolidin-2-yl]ethanesulfonamido}-naphthalen-1-yl)methyl]-1H-pyrrolo[2,3-b]pyr-idine-2-carboxylate] |  | 500 to 3000 | 
C[C@@H](c1ccccc1)S(=O)(=O)Nc1cc(Cn2c(C(=O)O)cc3ccc(CN)nc32)c2ccccc2c1 (racemic) [Compound 73, 6-(aminomethyl)-1-{[3-(1-phenylethanesulfon-amido)naphthalen-1-yl]-methyl}-1H-pyrrolo[2,3-b]pyridine-2-carboxylic acid] | ≤ 100 |  | 
CN1CCC(CCCOC(=O)c2cc3ccc(CN)nc3n2Cc2cc(NS(=O)(=O)Cc3ccccc3)cc3ccccc23)CC1 [Compound 2.23] |  |  | Ki [3]: ≤ 100 nM
CS(=O)(=O)N1CCC(CNC(=O)Nc2cc(Cn3c(C(=O)O)cc4ccc(CN)nc43)c3ccccc3c2)CC1 [Compound 293, 6-(aminomethyl)-1-{[3-({[(1-methanesulfonyl-piperidin-4-yl)methyl]-carbamoyl}amino)naph-thalen-1-yl]methyl}-1H-pyrrolo[2,3-b]pyridine-2-carboxylic acid] |  | 100 to 500 | 
COc1ccc2c(Cn3c(C(=O)O)cc4ccc(CN)nc43)cc(NS(=O)(=O)Cc3ccccc3)cc2c1 [Compound 361] |  | 100 to 500 | 
COCCN1CCN(CCS(=O)(=O)Nc2cc(Cn3c(C(=O)O)cc4ccc(CN)nc43)c3ccccc3c2)CC1 [Compound 234, 6-(aminomethyl)-1-[(3-{2-[4-(2-methoxyethyl)-piperazin-1-yl]ethane-sulfonamido}naphthalen-1-yl)methyl]-1H-pyr-rolo[2,3-b]pyridine-2-carboxylic acid] |  | 100 to 500 | 
COCCN1CCN(C(=O)Nc2cc(Cn3c(C(N)=O)cc4ccc(CN)nc43)c3ccccc3c2)CC1 [Compound 344, 6-(aminomethyl)-1-((3-(4-(2-methoxyethyl)piperazine-1-carboxamido)naphthalen-1-yl)methyl)-1H-pyrrolo[2,3-b]pyridine-2-carboxamide] |  | 100 to 500 | 
COCCN1CCC(COC(=O)c2cc3ccc(CN)nc3n2Cc2cc(NS(=O)(=O)Cc3ccsc3)cc3ccccc23)CC1 [Compound 167, [1-(2-methoxyethyl)-piperidin-4-yl]methyl 6-(aminomethyl)-1-({3-[(thiophen-3-yl)meth-anesulfonamido]naph-thalen-1-yl}methyl)-1H-pyrrolo[2,3-b]pyridine-2-carboxylate] | ≤ 100 |  | 
NCc1ccc2cc(C(=O)O)n(Cc3cc(NS(=O)(=O)Cc4ccoc4)cc4ccccc34)c2n1 [Compound 220, 6-(aminomethyl)-1-({3-[(furan-3-yl)methane-sulfonamido]naphthalen-1-yl}methyl)-1H-pyr-rolo[2,3-b]pyridine-2-carboxylic acid] |  | 100 to 500 | 
CN1CCC(COC(=O)c2cc3ccc(CN)nc3n2Cc2cc(NS(=O)(=O)Cc3ccccc3F)cc3ccccc23)CC1 [Compound 205, (1-methylpiperidin-4-yl)methyl 6-(aminometh-yl)-1-({3-[(2-fluorophen-yl)methanesulfonamido]-naphthalen-1-yl}methyl)-1H-pyrrolo[2,3-b]pyr-idine-2-carboxylate] |  | ≤ 100 | 
CC(C)(C)n1nccc1COC(=O)c1cc2ccc(CN)nc2n1Cc1cc(NS(=O)(=O)Cc2ccccc2)cc2ccccc12 [Compound 110] | 100 to 500 |  | 
CN1CCC(CCOC(=O)c2cc3ccc(CN)nc3n2Cc2cc(NS(=O)(=O)Cc3ccsc3)cc3ccccc23)CC1=O (centres unmarked) [Compound 2.4] |  |  | Ki [3]: ≤ 100 nM
CN1CCC(CCOC(=O)c2cc3ccc(CN)nc3n2Cc2cc(NS(=O)(=O)Cc3ccsc3)cc3ccccc23)CC1 [Compound 174] | ≤ 100 |  | 
NCc1ccc2cc(C(=O)OCc3cccnc3)n(Cc3cc(NS(=O)(=O)Cc4ccccc4)cc4ccccc34)c2n1 [Compound 81, (pyridin-3-yl)methyl 6-(aminomethyl)-1-{[3-(phenylmethanesulfon-amido)naphthalen-1-yl]-methyl}-1H-pyrrolo[2,3-b]pyridine-2-carboxylate] | ≤ 100 |  | 
CC(C)OC(=O)c1cc2ccc(CN)nc2n1Cc1cc(NS(=O)(=O)Cc2ccccc2)cc2ccccc12 [Compound 112, propan-2-yl 6-(amino-methyl)-1-{[3-(phenyl-methanesulfonamido)-naphthalen-1-yl]methyl}-1H-pyrrolo[2,3-b]pyr-idine-2-carboxylate] | 500 to 3000 |  | 

Second part, led by results:

Ki [1] [nM] | Ki [2] [nM] | Compound | other results
 | 500 to 3000 | CCOC(=O)c1cc2ccc(CN)nc2n1Cc1cc(NS(=O)(=O)Cc2c(C)cccc2C)cc2ccccc12 [Compound 202, ethyl 6-(aminomethyl)-1-({3-[(2,6-dimethyl-phenyl)methanesulfon-amido]naphthalen-1-yl}-methyl)-1H-pyrrolo[2,3-b]pyridine-2-carboxylate] | 
≤ 100 |  | CN(C)CCOC(=O)c1cc2ccc(CN)nc2n1Cc1cc(NS(=O)(=O)Cc2ccsc2)cc2ccccc12 [Compound 169, 2-(dimethylamino)ethyl 6-(aminomethyl)-1-({3-[(thiophen-3-yl)methane-sulfonamido]naphthalen-1-yl}methyl)-1H-pyr-rolo[2,3-b]pyridine-2-carboxylate] | 
≤ 100 |  | COC(=O)NCCOC(=O)c1cc2ccc(CN)nc2n1Cc1cc(NS(=O)(=O)Cc2ccccc2)cc2ccccc12 [Compound 75, 2-[(methoxycarbonyl)-amino]ethyl 6-(amino-methyl)-1-{[3-(phenyl-methanesulfonamido)-naphthalen-1-yl]methyl}-1H-pyrrolo[2,3-b]pyr-idine-2-carboxylate] | 
≤ 100 |  | CN(C)CCCOC(=O)c1cc2ccc(CN)nc2n1Cc1cc(NS(=O)(=O)Cc2ccccc2)cc2ccccc12 [Compound 47, 3-(dimethylamino)prop-yl 6-(aminomethyl)-1-{[3-(phenylmethane-sulfonamido)naphthalen-1-yl]methyl}-1H-pyr-rolo[2,3-b]pyridine-2-carboxylate] | 
 | ≤ 100 | Cc1cccc(C)c1CS(=O)(=O)Nc1cc(Cn2c(C(=O)OCC3CCN(C=O)CC3)cc3ccc(CN)nc32)c2ccccc2c1 [Compound 198, (1-formylpiperidin-4-yl)-methyl 6-(aminomethyl)-1-({3-[(2,6-dimethyl-phenyl)methanesulfon-amido]naphthalen-1-yl}-methyl)-1H-pyrrolo[2,3-b]pyridine-2-carboxylate] | 
100 to 500 |  | NCc1ccc2cc(C(=O)OCCO)n(Cc3cc(NS(=O)(=O)Cc4ccccc4)cc4ccccc34)c2n1 [Compound 82, 2-hydroxyethyl 6-(amino-methyl)-1-{[3-(phenyl-methanesulfonamido)-naphthalen-1-yl]methyl}-1H-pyrrolo[2,3-b]pyr-idine-2-carboxylate] | 
500 to 3000 |  | CN(CCOC(=O)c1cc2ccc(CN)nc2n1Cc1cc(NS(=O)(=O)Cc2ccccc2)cc2ccccc12)c1ccccc1 [Compound 126, 2-[methyl(phenyl)-amino]ethyl 6-(amino-methyl)-1-{[3-(phenyl-methanesulfonamido)-naphthalen-1-yl]methyl}-1H-pyrrolo[2,3-b]pyr-idine-2-carboxylate] | 
≤ 100 |  | CC(=O)N(C)CCOC(=O)c1cc2ccc(CN)nc2n1Cc1cc(NS(=O)(=O)Cc2c(C)cccc2C)cc2ccccc12 [Compound 197, 2-(N-methylacetamido)-ethyl 6-(aminomethyl)-1-({3-[(2,6-dimethylphen-yl)methanesulfonamido]-naphthalen-1-yl}methyl)-1H-pyrrolo[2,3-b]pyr-idine-2-carboxylate] | 
